Data as given in patent EP0649656B1 (priority 1993, dated 1995).
Where a name gives a salt, the structure may show the parent alone.

What was measured:
[1] = tested on: virus Herpès simplex type I; experiment: In vivo cutaneous HSV I infection in guinea pigs, local application; set-up: species or system cobayes albinos (Dunkin-Hartley, IFFA-CREDO); settings: for infection herpétique cutanée / lésions cutanées: cobayes, application locale deux fois par jour pendant 3 jours, observations jours 5 à 8; for % moyen d'activité: moyenne entre le jour 5 et le jour 8
Method: L'expérimentation a été réalisée en application locale sur des cobayes albinos (Dunkin-Hartley, IFFA-CREDO) auxquels on a préalablement inoculé par scarification le virus Herpès simplex type I. Sur ces scarifications, on a appliqué 0,1 ml d'une solution de virus HSV I titrant 10 000 DI50 pour 100 µl. Un flanc des animaux a servi de témoin. Le traitement a été effectué deux fois par jour pendant 3 jours, la première application ayant lieu 18 h après l'inoculation.
Les paramètres retenus pour déterminer la gravité des lésions cutanées sont : érythèmes, indurations, nombre et taille des vésicules, aires d'infection et présence ou absence de virus. Les observations sont réalisées 5, 6, 7 et 8 jours après l'inoculation.

[2] = cited from earlier work
virus HSV I [3] = experiment: Virucidal activity by contact of the virus with the compounds, infra-cytotoxic doses; assay type: cell-based; settings: doses infra-cytotoxiques, "-" = absence d'activité
Method: (§1) Dans un premier temps, on a donc déterminé l'activité virucide des différents composés testés par mise en contact du virus avec ces composés. Puis on a déterminé l'activité anti-virale des composés testés en inoculant le virus (sous la forme d'une suspension préalablement diluée dans du milieu de Hanks de manière à avoir une concentration en virus de 100 DE50 pour 10 µl de suspension) à une culture de fibroblastes de poumon embryonnaire (cellules commercialisées par la société Bio-Mérieux sous la référence MCR5), puis en traitant la culture cellulaire, inoculée par le virus, par les composés à tester, dilués également dans du milieu de Hanks. Les plaques de cultures cellulaires ont ensuite été observées au microscope inversé après 24h et 48h d'inoculation, ainsi que des cultures témoins non-inoculées et des virus témoins incubés sans composés. Les résultats sont rassemblés dans le tableau suivant: […]

virus HSV I [4] = experiment: Anti-viral activity in HSV I-inoculated embryonic lung fibroblast culture; assay type: cell-based; settings: HSV I 100 DE50 pour 10 µl, fibroblastes de poumon embryonnaire MCR5, observation 24h et 48h; "-" = absence d'activité
Method: as §1

[5] = tested on: infections herpétiques buccales et vulvaires; experiment: Human clinical use in buccal and vulvar herpetic infections; assay type: in vivo, humaine
zonas = experiment: Human clinical use in zona; assay type: in vivo; settings: clinique humaine

Row | Molecule | infection herpétique cutanée / lésions cutanées [1] | % moyen d'activité ([1]; concentration 0,2 %) | solubilité dans l'alcool [2] | solubilité dans l'eau [2] | solubilité dans l'éther [2] | Concentrations minimales activité virucide (virus HSV I [3]) [µg/mL] | Concentrations minimales activité anti-virale (virus HSV I [4]) [µg/mL] | % moyen d'activité ([1]; concentration 1,0 %) | % moyen d'activité ([1]; concentration 2,0 %) | % moyen d'activité ([1]; concentration 4,0 %) | résultats en clinique humaine [5] | éruptions vésiculeuses et névralgies des territoires cutanés infectés (zonas)
1 | Oc1cccc2cccnc12 [8-HQS, sulfate d'hydroxy-8 quinoléine] | aucun effet | 0,0% | faiblement soluble | soluble | insoluble | – | – | – | – | – | – | –
2 | acriflavine [ACF] | réduisent significativement | 0,0% | partiellement soluble | soluble | pratiquement insoluble | 1 | 2 | 44,5% | 81,5% | 95,2% | résultats favorables | réduit significativement
3 | Nc1nc2c(ncn2COCCO)c(=O)[nH]1 [Acyclovir, 2-amino-1,9-dihydro-9-[(2-hydroxyethoxy)methyl]-6H-purin-6-one] | – | – | – | – | – | – | – | 55,2% | – | – | – | –
